Experimental data from PMC4910235, “Selenophene and thiophene-core estrogen receptor ligands that inhibit motility and development of parasitic stages of Haemonchus contortus” (Parasites & Vectors, 2016).
Where two headings read alike, the source gives them in different places.

Assays:
[1] = test system: exsheathed third-stage larvae (xL3s) of H. contortus; experiment: xL3 motility assay (whole-organism screen and dose-response); type: cell-based, Haemonchus contortus
Protocol: The selenophene and thiophene-core ligands (n = 74) (Additional file 1) were screened at a concentration of 20 μM on exsheathed third-stage larvae (xL3s) of H. contortus in 96-well microculture plates (cat. no. 3635; Corning 3650, Life Sciences, Corning, USA) using relevant control compounds (i.e. moxidectin and monepantel), as described previously. In brief, compounds were dissolved to a stock concentration of 10 mM in either dimethyl sulfoxide (DMSO) or methanol (Sigma-Adrich Scientific, St. Louis, USA). These ligands were then individually diluted to the final concentration of 20 μM using Luria Bertani medium (LB) supplemented with 100 IU/ml of penicillin, 100 μg/ml of streptomycin and 2.5 μg/ml of amphotericin (LB*). Compounds were dispensed (in triplicate) into the wells of a 96-well microculture plate using a multichannel pipette. In addition, the negative controls (LB*, LB* + 0.5 % solvent; six wells each), and positive controls (20 μM of monepantel; Zolvix, Novartis Animal Health, Basel, Switzerland and 20 μM of moxidectin; Cydectin, Virbac, Carros, France; triplicate wells) and xL3s (~300/well) were dispensed into wells of the plate using an automated multichannel pipette (Viaflo Assist/II, Integra Biosciences, Zizers, Switzerland). […], a video recording (5 s) was taken of each well of the 96-well microculture plate (containing xL3s) using a greyscale camera (Rolera Bolt CMOS, Qimaging Scientific, Surrey, Canada) and a motorised X-Y axis stage (BioPoint 2, Ludl Electronics Products, Hawthorne, USA). Individual videos were processed to calculate a motility index (MI) using an algorithm described previously. MIs were normalised to the negative and positive controls (to remove plate-to-plate variation) using the program Prism (v.6 GraphPad Software, USA). Z’-scores were calculated to validate the performance of the screening assay; reliable assays achieve Z’-scores of between 0.5 and 1 [28]. A compound was recorded as having an activity if it reduced xL3 motility by ≥ 70 % following incubation for 72 h. […] Compounds that reduced the motility of xL3s were also tested for their ability to inhibit the motility of L4s (same protocol as for xL3s) and/or to affect the development of xL3s to L4s. Following the measurement of L4 motility, larvae were re-incubated for 4 more days and fixed with 1 % iodine (50 μl). Then, L4 development was assessed based on the presence of a well-developed mouth/pharynx using a light microscope and expressed as a percentage of the total number of larvae examined (n = 30).
(§1) All assays (to assess xL3 motility, L4 development and L4 motility) were performed in triplicate, three times, on separate days.

[2] = test system: development of xL3s to L4s of H. contortus; experiment: L4 development assay (xL3 to L4); type: cell-based; details: Haemonchus contortus, 168 h, read-out: L4 development (IC50s in μM)
Protocol: The selenophene and thiophene-core ligands (n = 74) (Additional file 1) were screened at a concentration of 20 μM on exsheathed third-stage larvae (xL3s) of H. contortus in 96-well microculture plates (cat. no. 3635; Corning 3650, Life Sciences, Corning, USA) using relevant control compounds (i.e. moxidectin and monepantel), as described previously. In brief, compounds were dissolved to a stock concentration of 10 mM in either dimethyl sulfoxide (DMSO) or methanol (Sigma-Adrich Scientific, St. Louis, USA). These ligands were then individually diluted to the final concentration of 20 μM using Luria Bertani medium (LB) supplemented with 100 IU/ml of penicillin, 100 μg/ml of streptomycin and 2.5 μg/ml of amphotericin (LB*). Compounds were dispensed (in triplicate) into the wells of a 96-well microculture plate using a multichannel pipette. In addition, the negative controls (LB*, LB* + 0.5 % solvent; six wells each), and positive controls (20 μM of monepantel; Zolvix, Novartis Animal Health, Basel, Switzerland and 20 μM of moxidectin; Cydectin, Virbac, Carros, France; triplicate wells) and xL3s (~300/well) were dispensed into wells of the plate using an automated multichannel pipette (Viaflo Assist/II, Integra Biosciences, Zizers, Switzerland). Following a 72 h incubation at 38 °C and 10 % CO2, a video recording (5 s) was taken of each well of the 96-well microculture plate (containing xL3s) using a greyscale camera (Rolera Bolt CMOS, Qimaging Scientific, Surrey, Canada) and a motorised X-Y axis stage (BioPoint 2, Ludl Electronics Products, Hawthorne, USA). Individual videos were processed to calculate a motility index (MI) using an algorithm described previously. MIs were normalised to the negative and positive controls (to remove plate-to-plate variation) using the program Prism (v.6 GraphPad Software, USA). Z’-scores were calculated to validate the performance of the screening assay; reliable assays achieve Z’-scores of between 0.5 and 1 [28]. A compound was recorded as having an activity if it reduced xL3 motility by ≥ 70 % following incubation for 72 h. […] Compounds that reduced the motility of xL3s were also tested for their ability to inhibit the motility of L4s (same protocol as for xL3s) and/or to affect the development of xL3s to L4s. Following the measurement of L4 motility, larvae were re-incubated for 4 more days and fixed with 1 % iodine (50 μl). Then, L4 development was assessed based on the presence of a well-developed mouth/pharynx using a light microscope and expressed as a percentage of the total number of larvae examined (n = 30).
as §1

[3] = Haemonchus contortus, 24 h; read-out: xL3 motility (IC50s in μM)
[4] = Haemonchus contortus, 48 h; read-out: xL3 motility (IC50s in μM)
[5] = Haemonchus contortus, 72 h, 20 μM, 72 h; percent of motility compared with controls; mean of triplicate ± SEM; read-out: xL3 Motility Index(%)
[6] = Haemonchus contortus, 72 h; read-out: xL3 motility (IC50s in μM)
[7] = Haemonchus contortus; 20 μM, 72 h; read-out: inhibition of xL3 motility in the primary screen

Row | IC50 ([2]; 7 days) [µM] | SMILES | IC50 [1, 3] [µM] | IC50 [1, 4] [µM] | activity at 20 µM [1, 5] [%] | IC50 [1, 6] [µM] | inhibition at 20 µM [1, 7] [%] | IC50 ([1]; Haemonchus contortus; read-out: xL3 motility IC50 at both 48 h and 72 h) [µM] | IC50 ([1]; Haemonchus contortus, 24 h, read-out: xL3 motility (IC50s in μM)) [µM] | IC50 ([1]; Haemonchus contortus, 48 h, read-out: xL3 motility (IC50s in μM)) [µM] | inhibition at 20 µM ([1]; Haemonchus contortus, 72 h, read-out: inhibition of xL3 motility in the primary screen) [%] | activity at 20 µM ([1]; Haemonchus contortus, 72 h, read-out: xL3 Motility Index(%), 20 μM, 72 h; percent of motility compared with controls; mean of triplicate ± SEM) [%] | IC50 ([1]; Haemonchus contortus, 72 h, read-out: xL3 motility (IC50s in μM)) [µM] | IC50 [2] [µM]
1 | 13.7 | Oc1ccc(-c2cscc2-c2ccc(O)cc2Cl)c(Cl)c1 [MJ-17] | 25.7 | 25.6 | 20.6 ± 4.9 | 23.8 | > 70 | 23.8 to 25.6 |  |  |  |  |  | 
2 | 10.5 | Cc1cc(O)ccc1-c1ccc(-c2ccc(O)cc2F)s1 [MJ-22] | 6.6 | 7.2 | 6.7 ± 8.2 | 9.6 | > 70 |  |  |  |  |  |  | 
3 | 0.4 | C[C@](C#N)(COc1cc(C#N)ccc1C(F)(F)F)NC(=O)c1ccc(SC(F)(F)F)cc1 [Monepantel, reference compound] | ~52.1 | 6 |  | 0.4 |  |  |  |  |  |  |  | 
4 | 12.3 | CO/N=C1\C[C@]2(C[C@@H]3C[C@@H](C/C=C(\C)C[C@@H](C)/C=C/C=C4\CO[C@@H]5[C@H](O)C(C)=C[C@@H](C(=O)O3)[C@]45O)O2)O[C@H](/C(C)=C/C(C)C)[C@H]1C [Moxidectin, reference compound] | 2.5 | 2.5 |  | 2.3 |  |  |  |  |  |  |  | 
5 |  | Oc1ccc(-c2ccc(-c3ccc(O)cc3Cl)[se]2)c(Cl)c1 [WZY-2] |  |  |  |  |  |  | 10 | 13 | > 70 | 12.3 ± 0.1 | 12.1 | 12.2
